Laboratory results from US20100317624A1 (ASTRAZENECA AB, priority 2009, published 2010).

These molecules were tested against S. aureus GyrB ATPase (Staphylococcus aureus, UniProt P0A0K8) (assay: S. aureus GyrB ATPase inhibition (ammonium molybdate/malachite green phosphate detection)). Conditions: compound at 1 μM; inhibition of S. aureus GyrB ATPase; read-out: Percent Inhibition (1 μM).
S. aureus GyrB ATPase, sequence (P0AES4 whole entry): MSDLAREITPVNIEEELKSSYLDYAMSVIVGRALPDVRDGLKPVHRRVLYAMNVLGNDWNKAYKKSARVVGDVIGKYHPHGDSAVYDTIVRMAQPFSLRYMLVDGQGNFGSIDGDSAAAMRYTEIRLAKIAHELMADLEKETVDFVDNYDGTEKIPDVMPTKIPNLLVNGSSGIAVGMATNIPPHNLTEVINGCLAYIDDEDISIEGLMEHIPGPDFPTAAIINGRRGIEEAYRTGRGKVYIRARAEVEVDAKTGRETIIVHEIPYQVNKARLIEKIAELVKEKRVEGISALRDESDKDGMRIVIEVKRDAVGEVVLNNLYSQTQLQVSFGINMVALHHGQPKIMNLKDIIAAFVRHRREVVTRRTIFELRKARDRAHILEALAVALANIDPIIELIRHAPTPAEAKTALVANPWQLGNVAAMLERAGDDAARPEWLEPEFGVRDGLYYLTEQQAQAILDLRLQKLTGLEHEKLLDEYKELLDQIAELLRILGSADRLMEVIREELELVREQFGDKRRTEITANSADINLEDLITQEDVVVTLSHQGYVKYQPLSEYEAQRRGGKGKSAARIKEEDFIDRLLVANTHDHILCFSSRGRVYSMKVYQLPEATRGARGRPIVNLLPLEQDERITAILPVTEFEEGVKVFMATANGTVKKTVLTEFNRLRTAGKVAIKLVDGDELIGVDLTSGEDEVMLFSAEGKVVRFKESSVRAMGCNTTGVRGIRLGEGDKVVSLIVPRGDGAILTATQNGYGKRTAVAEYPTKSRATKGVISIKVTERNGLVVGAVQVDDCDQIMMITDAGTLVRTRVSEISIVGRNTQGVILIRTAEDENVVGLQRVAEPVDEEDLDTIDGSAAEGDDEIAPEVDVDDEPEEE
S. aureus GyrB ATPase, sequence (P0A0K8 whole entry): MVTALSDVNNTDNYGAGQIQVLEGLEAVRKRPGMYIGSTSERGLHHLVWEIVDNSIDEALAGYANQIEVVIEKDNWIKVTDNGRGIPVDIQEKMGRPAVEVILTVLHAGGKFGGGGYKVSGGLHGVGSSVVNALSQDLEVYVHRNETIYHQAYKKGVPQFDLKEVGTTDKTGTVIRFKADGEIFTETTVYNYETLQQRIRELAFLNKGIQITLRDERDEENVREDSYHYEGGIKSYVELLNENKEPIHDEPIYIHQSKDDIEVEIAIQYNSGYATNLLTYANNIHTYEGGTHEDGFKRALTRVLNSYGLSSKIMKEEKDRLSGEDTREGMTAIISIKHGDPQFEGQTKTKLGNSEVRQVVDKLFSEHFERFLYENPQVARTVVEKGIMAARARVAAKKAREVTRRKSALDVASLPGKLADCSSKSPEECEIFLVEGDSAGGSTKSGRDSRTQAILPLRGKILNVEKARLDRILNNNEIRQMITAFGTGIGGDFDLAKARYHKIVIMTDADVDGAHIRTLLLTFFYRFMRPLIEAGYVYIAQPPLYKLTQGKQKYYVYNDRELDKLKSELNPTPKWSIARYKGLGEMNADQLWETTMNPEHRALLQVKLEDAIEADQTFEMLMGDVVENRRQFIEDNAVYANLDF
Type: biochemical
Description: S. aureus GyrB ATPase Inhibition Activity: Compounds may be tested for inhibition of S. aureus GyrB ATPase activity using an ammonium molybdate/malachite green-based phosphate detection assay (Lanzetta, P. A., L. J. Alvarez, P. S. Reinach, and O. A. Candia, 1979, 100: 95-97). Assays can be performed in multiwell plates in 30 μl reactions containing: 50 mM Hepes buffer pH 7.5, 75 mM ammonium acetate, 8.0 mM magnesium chloride, 0.5 mM ethylenediaminetetraacetic acid, 5% glycerol, 1.0 mM 1,4-Dithio-DL-threitol, 200 nM bovine serum albumin, 1.0 μg/ml sheared salmon sperm DNA, 250 pM E. coli GyrA, 250 pM S. aureus GyrB, 250 μM ATP, and compound in dimethylsulfoxide. Reactions can be quenched with 30 μl of ammonium molybdate/malachite green detection reagent containing 1.2 mM malachite green hydrochloride, 8.5 mM ammonium molybdate tetrahydrate, and 1 M hydrochloric acid. Plates can be read in an absorbance plate reader at 650 nm and percent inhibition values can be calculated using dimethylsulfoxide (2%)-containing reactions as 0% inhibition and EDTA-containing ([…]) reactions as 100% inhibition controls. An IC50 measurement of compound potency for each compound can be determined from reactions performed in the presence of 10 different compound concentrations.
`CCNC(=O)Nc1cc(-c2nc(C(F)(F)F)cs2)c(-c2cc3c(=O)c(C(=O)O)cn(CC)c3cc2N2CCN(C)CC2)cn1` [Example 22, 1-ethyl-6-(6-(3-ethylureido)-4-(4-(trifluoromethyl)thiazol-2-yl)pyridin-3-yl)-7-(4-methylpiperazin-1-yl)-4-oxo-1,4-dihydroquinoline-3-carboxylic acid] gave an inhibition at 1 µM of 103%. `CCNC(=O)Nc1cc(-c2nc(-c3ccccc3)cs2)c(-c2cc3c(=O)c(C(=O)O)cn(C[C@@H]4CCCN4CC)c3cc2OCCN(C)C)cn1` [Example 23, 7-(2-(dimethylamino)ethoxy)-1-(((S)-1-ethylpyrrolidin-2-yl)methyl)-6-(6-(3-ethylureido)-4-(4-phenylthiazol-2-yl)pyridin-3-yl)-4-oxo-1,4-dihydroquinoline-3-carboxylic acid] gave an inhibition at 1 µM of 100%. In the case of `CCNC(=O)Nc1cc(-c2nc(-c3ccccc3)cs2)c(-c2cc3c(=O)c(C(=O)O)cn(CCN(C)C)c3cc2OCCN(C)C)cn1` [Example 24, 7-(2-(dimethylamino)ethoxy)-1-(2-(dimethylamino)ethyl)-6-(6-(3-ethylureido)-4-(4-phenylthiazol-2-yl)pyridin-3-yl)-4-oxo-1,4-dihydroquinoline-3-carboxylic acid], the inhibition at 1 µM is reported as 107%. `CCNC(=O)Nc1cc(-c2nc(C(F)(F)F)cs2)c(-c2cc3c(=O)c(C(=O)O)cn(C[C@@H]4CCCN4CC)c3cc2OCCN(C)C)cn1` [Example 25, 7-(2-(dimethylamino)ethoxy)-1-(((S)-1-ethylpyrrolidin-2-yl)methyl)-6-(6-(3-ethylureido)-4-(4-(trifluoromethyl)thiazol-2-yl)pyridin-3-yl)-4-oxo-1,4-dihydroquinoline-3-carboxylic acid] was tested, and the inhibition at 1 µM was 98%. `CCNC(=O)Nc1cc(-c2nc(C(F)(F)F)cs2)c(-c2cc3c(=O)c(C(=O)O)cn(CCN(C)C)c3cc2OCCN(C)C)cn1` [Example 26, 7-(2-(dimethylamino)ethoxy)-1-(2-(dimethylamino)ethyl)-6-(6-(3-ethylureido)-4-(4-(trifluoromethyl)thiazol-2-yl)pyridin-3-yl)-4-oxo-1,4-dihydroquinoline-3-carboxylic acid] showed an inhibition at 1 µM of 108%. In the case of `CCNC(=O)Nc1cc(-c2nc(C(F)(F)F)cs2)c(-c2cc3c(=O)c(C(=O)O)cn([C@H](CO)C(C)(C)C)c3cc2F)cn1` [Example 27, 6-(6-(3-ethylureido)-4-(4-(trifluoromethyl)thiazol-2-yl)pyridin-3-yl)-7-fluoro-1-((S)-1-hydroxy-3,3-dimethylbutan-2-yl)-4-oxo-1,4-dihydroquinoline-3-carboxylic acid], the inhibition at 1 µM is reported as 125%. Molecule `CCNC(=O)Nc1cc(-c2nc(C(F)(F)F)cs2)c(-c2cc3c(=O)c(C(=O)O)cn([C@H](CO)C(C)C)c3cc2OC)cn1` [Example 28, 6-(6-(3-ethylureido)-4-(4-(trifluoromethyl)thiazol-2-yl)pyridin-3-yl)-1-((S)-1-hydroxy-3-methylbutan-2-yl)-7-methoxy-4-oxo-1,4-dihydroquinoline-3-carboxylic acid] has an inhibition at 1 µM of 104%. Molecule `CCNC(=O)Nc1cc(-c2nc(C(F)(F)F)cs2)c(-c2ccc3c(c2)c(=O)c(C(=O)N(C)C)cn3CCN(C)C)cn1` [Example 29, 1-[2-(Dimethylamino)ethyl]-6-{6-[(ethylcarbamoyl)amino]-4-[4-(trifluoromethyl)-1,3-thiazol-2-yl]pyridin-3-yl}-N,N-dimethyl-4-oxo-1,4-dihydroquinoline-3-carboxamide] has an inhibition at 1 µM of 93%. `CCNC(=O)Nc1cc(-c2nc(C(F)(F)F)cs2)c(-c2ccc3c(c2)c(=O)c(C(=O)N(C)C)cn3CCN2CCN(C)CC2)cn1` [Example 30, 6-{6-[(Ethylcarbamoyl)amino]-4-[4-(trifluoromethyl)-1,3-thiazol-2-yl]pyridin-3-yl}-N,N-dimethyl-1-[2-(4-methylpiperazin-1-yl)ethyl]-4-oxo-1,4-dihydroquinoline-3-carboxamide] showed an inhibition at 1 µM of 98%. `CCNC(=O)Nc1cc(-c2nc(C(F)(F)F)cs2)c(-c2ccc3c(c2)c(=O)c(C(=O)N(C)C)cn3CC2CN3CCN2CC3)cn1` (stereo not drawn) [Example 31, 1-(1,4-diazabicyclo[2.2.2]oct-2-ylmethyl)-6-{6-[(ethylcarbamoyl)amino]-4-[4-(trifluoromethyl)-1,3-thiazol-2-yl]pyridin-3-yl}-N,N-dimethyl-4-oxo-1,4-dihydroquinoline-3-carboxamide] was tested, and the inhibition at 1 µM was 114%. For `CCNC(=O)Nc1cc(-c2nc(C(F)(F)F)cs2)c(-c2ccc3c(c2)c(=O)c(C(=O)N(C)C)cn3C[C@@H]2CCCNC2)cn1` [Example 32, 6-{6-[(Ethylcarbamoyl)amino]-4-[4-(trifluoromethyl)-1,3-thiazol-2-yl]pyridin-3-yl}-N,N-dimethyl-4-oxo-1-[(3R)-piperidin-3-ylmethyl]-1,4-dihydroquinoline-3-carboxamide], the inhibition at 1 µM was 104%. `CCNC(=O)Nc1cc(-c2nc(C(F)(F)F)cs2)c(-c2ccc3c(c2)c(=O)c(C(=O)N(C)C)cn3C[C@H]2CCCNC2)cn1` [Example 33, 6-{6-[(Ethylcarbamoyl)amino]-4-[4-(trifluoromethyl)-1,3-thiazol-2-yl]pyridin-3-yl}-N,N-dimethyl-4-oxo-1-[(3S)-piperidin-3-ylmethyl]-1,4-dihydroquinoline-3-carboxamide] showed an inhibition at 1 µM of 104%. `CCNC(=O)Nc1cc(-c2nc(C(F)(F)F)cs2)c(-c2ccc3c(c2)c(=O)c(C(=O)O)cn3CCN)cn1` [Example 34, 1-(2-Aminoethyl)-6-{6-[(ethylcarbamoyl)amino]-4-[4-(trifluoromethyl)-1,3-thiazol-2-yl]pyridin-3-yl}-4-oxo-1,4-dihydroquinoline-3-carboxylic acid] showed an inhibition at 1 µM of 112%. `CCNC(=O)Nc1cc(-c2nc(C(F)(F)F)cs2)c(-c2ccc3c(c2)c(=O)c(C(=O)O)cn3[C@H]2[C@@H]3CN(C)C[C@@H]32)cn1` [Example 35, 6-{6-[(ethylcarbamoyl)amino]-4-[4-(trifluoromethyl)-1,3-thiazol-2-yl]pyridin-3-yl}-1-[(1R,5S,6s)-3-methyl-3-azabicyclo[3.1.0]hex-6-yl]-4-oxo-1,4-dihydroquinoline-3-carboxylic acid] showed an inhibition at 1 µM of 108%. With `CCNC(=O)Nc1cc(-c2nc(C(F)(F)F)cs2)c(-c2ccc3c(c2)c(=O)c(C(=O)O)cn3C[C@@H]2CCN(CCN3CCN(C)CC3)C2)cn1` [Example 36, (R)-6-(6-(3-ethylureido)-4-(4-(trifluoromethyl)thiazol-2-yl)pyridin-3-yl)-1-((1-(2-(4-methylpiperazin-1-yl)ethyl)pyrrolidin-3-yl)methyl)-4-oxo-1,4-dihydroquinoline-3-carboxylic acid] the inhibition at 1 µM was 112%. Molecule `CCNC(=O)Nc1cc(-c2nc(C(F)(F)F)cs2)c(-c2ccc3c(c2)c(=O)c(C(=O)O)cn3C[C@H]2CCN(CCN3CCN(C)CC3)C2)cn1` [Example 37, (S)-6-(6-(3-ethylureido)-4-(4-(trifluoromethyl)thiazol-2-yl)pyridin-3-yl)-1-((1-(2-(4-methylpiperazin-1-yl)ethyl)pyrrolidin-3-yl)methyl)-4-oxo-1,4-dihydroquinoline-3-carboxylic acid] has an inhibition at 1 µM of 100%. `CCNC(=O)Nc1cc(-c2nc(C(F)(F)F)cs2)c(-c2ccc3c(c2)c(=O)c(C(=O)OCOC(C)=O)cn3C(COC)COC)cn1` [Example 38, Acetoxymethyl 1-(1,3-dimethoxypropan-2-yl)-6-(6-(3-ethylureido)-4-(4-(trifluoromethyl)thiazol-2-yl)pyridin-3-yl)-4-oxo-1,4-dihydroquinoline-3-carboxylate] gave an inhibition at 1 µM of 105%. Work on `CCNC(=O)Nc1cc(-c2nc(C(F)(F)F)cs2)c(-c2ccc3c(c2)c(=O)c(C(=O)OCOC(=O)C(C)(C)C)cn3C(COC)COC)cn1` [Example 39, Pivaloyloxymethyl 1-(1,3-dimethoxypropan-2-yl)-6-(6-(3-ethylureido)-4-(4-(trifluoromethyl)thiazol-2-yl)pyridin-3-yl)-4-oxo-1,4-dihydroquinoline-3-carboxylate] yielded an inhibition at 1 µM of 102%. Work on `CCNC(=O)Nc1cc(-c2nc(C(F)(F)F)cs2)c(-c2ccc3c(c2)c(=O)c(C(=O)OCc2oc(=O)oc2C)cn3C(COC)COC)cn1` [Example 40, (5-methyl-2-oxo-1,3-dioxo1-4-yl)methyl 1-(1,3-dimethoxypropan-2-yl)-6-(6-(3-ethylureido)-4-(4-(trifluoromethyl)thiazol-2-yl)pyridin-3-yl)-4-oxo-1,4-dihydroquinoline-3-carboxylate] yielded an inhibition at 1 µM of 97%. Work on `CCNC(=O)Nc1cc(-c2nc(C(F)(F)F)cs2)c(-c2ccc3c(c2)c(=O)c(C(=O)OCCOC(C)=O)cn3C(COC)COC)cn1` [Example 41, 2-acetoxyethyl 1-(1,3-dimethoxypropan-2-yl)-6-(6-(3-ethylureido)-4-(4-(trifluoromethyl)thiazol-2-yl)pyridin-3-yl)-4-oxo-1,4-dihydroquinoline-3-carboxylate] yielded an inhibition at 1 µM of 107%. `CCNC(=O)Nc1cc(-c2nc(C(F)(F)F)cs2)c(-c2ccc3c(c2)c(=O)c(C(=O)OCCOC(=O)CC)cn3C(COC)COC)cn1` [Example 42, 2-(propionyloxy)ethyl 1-(1,3-dimethoxypropan-2-yl)-6-(6-(3-ethylureido)-4-(4-(trifluoromethyl)thiazol-2-yl)pyridin-3-yl)-4-oxo-1,4-dihydroquinoline-3-carboxylate] gave an inhibition at 1 µM of 104%.
